# Experimental data: patent EP1612281A2, “Methods for assessing patients with acute myeloid leukemia” (Veridex, LLC, priority 2004, dated 2006)
# System: patients with relapsed or refractory AML
# Test: Open label, multicenter, non-comparative phase 2 clinical study of tipifarnib with gene expression profiling
# Type: in vivo, human
# Method: The current study was part of an open label, multicenter, non-comparative phase 2 clinical study in which patients with relapsed or refractory AML (Harousseau et al. (2003)) were treated with tipifarnib at a starting oral dose of 600 mg bid for the first 21 consecutive days of each 28-day cycle. Patients were enrolled into 2 cohorts, those with relapsed AML and those with refractory AML. A total of 252 patients (135 relapsed and 117 refractory) were treated. Eighty patients chose to provide bone marrow samples for RNA microarray analysis, for which a separate informed consent was required. […] Complete remission with incomplete platelet recovery was defined similarly, except for a platelet count less than 100,000/µL sufficient to ensure transfusion independence. Partial remission was defined as at least a 50% decrease in bone marrow blasts with partial neutrophil (>500/µL) and platelet count (>50,000/µL) recovery. Response had to be confirmed at least 4 weeks after first documentation.
# The current study was an open label, multicenter, non-comparative Phase 2 study investigating the efficacy and safety of farnesyl transferase inhibition with tipifarnib administered as a single agent, at a starting oral dose of 600 mg b.i.d. for the first 21 days of each 28 day cycle in AML. Subjects were enrolled into two cohorts, those with relapsed AML and those with refractory AML. A total of 252 patients (135 relapsed and 117 refractory) were treated.
smiles,measurement,setting,value
Cn1cncc1[C@@](N)(c1ccc(Cl)cc1)c1ccc2c(c1)c(-c1cccc(Cl)c1)cc(=O)n2C [tipifarnib],response rate,"current patient population (10/54), stable disease patients excluded",18%
same,response rate,"entire group of 58 profiled patients (14/58), response includes objective response, hematological response or stable disease",24%
same,response rate,"patients with low expression of AKAP13 (8/26), stable disease patients excluded",31%
same,response rate,"patients with low expression of the AKAP13 gene (13/30), LOOCV, 58 samples",43%
same,response rate,"patients with the 3-gene signature (AHR, AKAP13, MINA53) (12/25), LOOCV",48%
